From patent publication US20230203558A1, “[…] FOR USE IN A METHOD OF DIAGNOSIS OF VIRAL INFECTION, KIT AND SYSTEM” (Original G B.V., priority 2020, published 2023)
Values joined by “and” are separate entries in the source; they are usually repeats but may differ in a detail not shown here. Identical values can stand only once. Where no end group is shown, it is not given here.

What was measured:
SARS-CoV-2 main protease [1] = target: T1, SARS-CoV-2 main protease (Severe acute respiratory syndrome coronavirus 2, UniProt P0DTD1)
SARS-CoV-2 main protease [2] = target: T1, SARS-CoV-2 main protease; conditions: 0.1 mg/mL peptide; for Cleavage of peptide (site) by SARS-CoV-2 main protease: protease 10 μM, RP-HPLC-MS
Description: Mass spectra were acquired on a Agilent Technologies 6530 Accurate Mass Q-TOF LC/MS with an Agilent Infinity 1260/1290 HPLC. RP-HPLC was carried out using a RP-aqueous 030 analytical column, 5 uM, 150×2.0 mm [Phenomenex]. The mobile phase was A) 10 mM ammonium formate/2% v/v MeCN, pH 6.2 and B) 10 mM ammonium formate/90% v/v MeCN, pH 6.2.
The gradient used was 0.2 mL-min, 25 minutes.
0.1 mg/mL solution of each peptide in Table 3 was incubated with SARS-CoV-2 main protease (at 10 μM).

elastase = test: Relative activity (NIR fluorescence) of quenched peptides with control protease elastase; assay type: biochemical
Rhinovirus = test: Clinical sample, Rhinovirus positive, relative activity on DeNIRO; conditions: peptide 20 μM
saliva proteases = test: Cross reactivity to saliva proteases; assay type: biochemical; parameters: key: −: Not observed; +: observed
SARS-CoV-2 = test: Clinical samples PCR-characterized for SARS-CoV-2, relative activity on DeNIRO; conditions: peptide 20 μM; for Relative activity class, SARS-CoV-2 positive (swab): room temperature, 0-60 minutes
[3] = system: Mycobacterium tuberculosis

Substance: Cy7-Ahx-AAFAA-K(QC1)-CONH2 [Peptide 3]
- Ratio for SARS-CoV-2 main protease to elastase (SARS-CoV-2 main protease [1]): 0.15
- Relative activity, SARS-CoV-2 main protease 0.2 μM (SARS-CoV-2 main protease [1]; pH 7.3): 0.4 and 0.6
- Cleavage fragment (SARS-CoV-2 main protease [2]; SARS-CoV-2 main protease 10 μM, 4 hours): NONE
- Cleavage of peptide (site) by SARS-CoV-2 main protease (SARS-CoV-2 main protease [2]): No cleavage was observed
- Relative activity, Elastase 0.2 μM (elastase; peptide concentration 5 μM): 2.2
- Relative activity, Elastase 0.2 μM (elastase; peptide concentration 20 μM): 87.1

Substance: Cy7-Ahx-[PEG1]-HQS[PEG1]K(QC1)-CONH2 [Peptide 2]
- Relative activity class, Rhinovirus positive (Rhinovirus): − (a relative activity of <10% indicates absence of SARS-CoV-2 (−))
- Ratio for SARS-CoV-2 main protease to elastase (SARS-CoV-2 main protease [1]): 54
- Cross reactivity to saliva proteases (saliva proteases): −
- Relative activity class, SARS-CoV-2 negative (saliva) (SARS-CoV-2): − (a relative activity of <10% indicates absence of SARS-CoV-2 (−))
- Relative activity class, SARS-CoV-2 negative (swab) (SARS-CoV-2): − (a relative activity of <10% indicates absence of SARS-CoV-2 (−))
- Relative activity class, SARS-CoV-2 positive (saliva) (SARS-CoV-2): + (A relative activity of >10% indicates the presence of SARS-CoV-2 (+))
- Relative activity class, SARS-CoV-2 positive (swab) (SARS-CoV-2): + (A relative activity of >10% indicates the presence of SARS-CoV-2 (+))
- Cleavage of peptide (site) by SARS-CoV-2 main protease (SARS-CoV-2 main protease [2]): between Q-S
- Relative activity class, Mycobacterium tuberculosis positive [3]: − (key: A relative activity of >10% indicates the presence of SARS-CoV-2 (+); a relative activity of <10% indicates absence of SARS-CoV-2 (−))
- Relative activity, Elastase 0.2 μM (elastase; peptide concentration 5 μM): 0.1
- Relative activity, Elastase 0.2 μM (elastase; peptide concentration 20 μM): 0.9

Substance: Cy7-Ahx-[PEG1]VLQS[PEG1]K(QC1)-CONH2 [Peptide 1]
- Relative activity class, Rhinovirus positive (Rhinovirus): − (a relative activity of <10% indicates absence of SARS-CoV-2 (−))
- Ratio for SARS-CoV-2 main protease to elastase (SARS-CoV-2 main protease [1]): 3.5
- Cross reactivity to saliva proteases (saliva proteases): −
- Relative activity class, SARS-CoV-2 negative (saliva) (SARS-CoV-2): − (a relative activity of <10% indicates absence of SARS-CoV-2 (−))
- Relative activity class, SARS-CoV-2 negative (swab) (SARS-CoV-2): − (a relative activity of <10% indicates absence of SARS-CoV-2 (−))
- Relative activity class, SARS-CoV-2 positive (saliva) (SARS-CoV-2): + (A relative activity of >10% indicates the presence of SARS-CoV-2 (+))
- Relative activity class, SARS-CoV-2 positive (swab) (SARS-CoV-2): + (A relative activity of >10% indicates the presence of SARS-CoV-2 (+))
- Cleavage of peptide (site) by SARS-CoV-2 main protease (SARS-CoV-2 main protease [2]): between Q-S
- Relative activity class, Mycobacterium tuberculosis positive [3]: − (key: A relative activity of >10% indicates the presence of SARS-CoV-2 (+); a relative activity of <10% indicates absence of SARS-CoV-2 (−))
- Relative activity, Elastase 0.2 μM (elastase; peptide concentration 5 μM): 7
- Relative activity, Elastase 0.2 μM (elastase; peptide concentration 20 μM): 8.5

Substance: Ex 1.1: fluorescently quenched peptide (TVRLQSGF) with fluorescent agent, non-fluorescent agent and cleavage site specific for a Coronavirus (also: fluorophore and quencher, sites not given here)
- increase in RFU (SARS-CoV-19 virus): An increase in RFU is detected
